Structures are written as SMILES.

From ChEMBL document CHEMBL3046233, “Synthesis and anticonvulsant activity of 4-(2-phenoxyphenyl)semicarbazones” (Med Chem Res, 2009) come the findings set out here.

Series [1] relates to Rattus norvegicus. In words: Anticonvulsant activity in Rattus norvegicus Wistar (rat) pentylenetetrazole-induced kindling model assessed as seizure time at 30 mg/kg, ip administered 30 min before pentylenetetrazole challenge. It counts as functional. Particulars: route intraperitoneal.
For series [2], the system named is Rattus norvegicus. As to the kind of experiment: Anticonvulsant activity in Rattus norvegicus Wistar (rat) pentylenetetrazole-induced kindling model assessed as seizure latency time at 30 mg/kg, ip administered 30 min before pentylenetetrazole challenge. Format: functional. Particulars: route intraperitoneal.
The test system of series [3] is Rattus norvegicus. In words: Neurotoxicity in Rattus norvegicus Wistar (rat) at 300 mg/kg, ip by rotarod test. Particulars: in vivo. Also noted: dose 300 mg/kg, route intraperitoneal. Format: toxicity, organism-based. A general note: Falling from the rotarod earlier than controls is read as motor impairment.
Series [4] deals with Rattus norvegicus. As to the kind of experiment: Anticonvulsant activity in Rattus norvegicus Wistar (rat) pentylenetetrazole-induced kindling model assessed as seizure time at 200 mg/kg, ip administered 30 min before pentylenetetrazole challenge. Format: functional. Particulars: route intraperitoneal.
The test system of series [5] is Rattus norvegicus. As to the kind of experiment: Anticonvulsant activity in Rattus norvegicus Wistar (rat) pentylenetetrazole-induced kindling model assessed as seizure time at 100 mg/kg, ip administered 30 min before pentylenetetrazole challenge. Format: functional. As to conditions: route intraperitoneal.
In series [6] the test system is Rattus norvegicus. As to the kind of experiment: Anticonvulsant activity in Rattus norvegicus Wistar (rat) pentylenetetrazole-induced kindling model assessed as seizure latency time at 200 mg/kg, ip administered 30 min before pentylenetetrazole challenge. Format: functional. Particulars: route intraperitoneal.
For series [7], the system named is Rattus norvegicus. As to the kind of experiment: Anticonvulsant activity in Rattus norvegicus Wistar (rat) pentylenetetrazole-induced kindling model assessed as seizure latency time at 100 mg/kg, ip administered 30 min before pentylenetetrazole challenge. It counts as functional. Particulars: route intraperitoneal.

`C/C(=N\NC(=O)Nc1ccccc1Oc1ccccc1)c1ccccc1[N+](=O)[O-]`: the Time in the series with Rattus norvegicus [1] is reported as 40.6 s; in the series on Rattus norvegicus [2], 639.2 s.

For `C/C(=N\NC(=O)Nc1ccccc1Oc1ccccc1)c1cccc([N+](=O)[O-])c1`, the Time in the series with Rattus norvegicus [1] came out at 32.2 s; in the series with Rattus norvegicus [2], 832.2 s.

For the molecule `C/C(=N\NC(=O)Nc1ccccc1Oc1ccccc1)c1ccc([N+](=O)[O-])cc1`, the Time is recorded as 64.25 s in the series on Rattus norvegicus [1] and 404.25 s in the series with Rattus norvegicus [2].

For `C/C(=N\NC(=O)Nc1ccccc1Oc1ccccc1)c1ccc(C)cc1`, the Time in the series with Rattus norvegicus [1] came to 71.42 s; in the series with Rattus norvegicus [2] it was 405.42 s.

For `C/C(=N\NC(=O)Nc1ccccc1Oc1ccccc1)c1ccccc1O`, the results for the Time with Rattus norvegicus [1] and with Rattus norvegicus [2] were 33.2 s and 532.4 s, respectively.

Take `CSc1ccc(/C(C)=N/NC(=O)Nc2ccccc2Oc2ccccc2)cc1`: the Time in the series on Rattus norvegicus [1] turned out to be 75 s; in the series with Rattus norvegicus [2], 189.4 s.

With `COc1ccc(OC)c(/C(C)=N/NC(=O)Nc2ccccc2Oc2ccccc2)c1`, the Time with Rattus norvegicus [1] was 69.16 s; in the series with Rattus norvegicus [2], 110 s.

On to `O=C(N/N=C/c1ccccc1)Nc1ccccc1Oc1ccccc1`, for which the Time in the series on Rattus norvegicus [1] was 48.5 s; in the series on Rattus norvegicus [2] it was 508.5 s.

On to `O=C(N/N=C/c1cccc(Br)c1)Nc1ccccc1Oc1ccccc1`, for which the figures for the Time with Rattus norvegicus [1] and in the series with Rattus norvegicus [2] were 81 s and 229.33 s, respectively.

For `O=C(N/N=C/c1ccccc1[N+](=O)[O-])Nc1ccccc1Oc1ccccc1`, the Time worked out at 36.5 s in the series with Rattus norvegicus [1] and 858.66 s in the series on Rattus norvegicus [2].

Take `O=C(N/N=C/c1cccc([N+](=O)[O-])c1)Nc1ccccc1Oc1ccccc1`: the Time is 40.2 s in the series on Rattus norvegicus [1] and 636.2 s in the series with Rattus norvegicus [2].

For `O=C(N/N=C/c1ccc([N+](=O)[O-])cc1)Nc1ccccc1Oc1ccccc1`, the Time was 79.75 s in the series on Rattus norvegicus [1] and 293.75 s with Rattus norvegicus [2].

With `Cc1ccc(/C=N/NC(=O)Nc2ccccc2Oc2ccccc2)cc1`, the Time in the series on Rattus norvegicus [1] is listed as 59.28 s; in the series with Rattus norvegicus [2], 418.71 s.

`O=C(N/N=C/c1ccccn1)Nc1ccccc1Oc1ccccc1`: the Time in the series with Rattus norvegicus [1] was 23 s; in the series with Rattus norvegicus [2], 1161.6 s. The Activity entry in the series with Rattus norvegicus [3] is “Non-toxic”.

As to `O=C(N/N=C/c1cccnc1)Nc1ccccc1Oc1ccccc1`, the Time in the series with Rattus norvegicus [1] is given as 40.4 s; with Rattus norvegicus [2], 903 s.

`O=C(N/N=C/c1ccncc1)Nc1ccccc1Oc1ccccc1`: the Time is 31.16 s in the series with Rattus norvegicus [1] and 969.83 s with Rattus norvegicus [2]. In the series on Rattus norvegicus [3], the Activity entry was “Non-toxic”.

In the case of `CSc1ccc(/C=N/NC(=O)Nc2ccccc2Oc2ccccc2)cc1`, the Time in the series on Rattus norvegicus [1] is listed as 66.5 s; in the series on Rattus norvegicus [2], 244.75 s.

As for `COc1ccc(OC)c(/C=N/NC(=O)Nc2ccccc2Oc2ccccc2)c1`, the Time in the series with Rattus norvegicus [1] was found to be 54.83 s; in the series with Rattus norvegicus [2] it was 150.16 s.

Take `C/C(=N\NC(=O)Nc1ccccc1Oc1ccccc1)c1ccccc1`: the values for the Time in the series with Rattus norvegicus [1] and in the series with Rattus norvegicus [2] were 48.75 s and 293.75 s, respectively.

`C/C(=N\NC(=O)Nc1ccccc1Oc1ccccc1)c1cccc(Br)c1`: the Time in the series on Rattus norvegicus [1] turned out to be 85.33 s; with Rattus norvegicus [2], 209.66 s.

As for `CCCC(CCC)C(=O)[O-].[Na+]` [VALPROATE SODIUM], the Time in the series on Rattus norvegicus [4] stood at 26.5 s; in the series on Rattus norvegicus [5], 40 s; with Rattus norvegicus [6], 900.62 s; in the series on Rattus norvegicus [7], 817.42 s.
